Source: ChEMBL document CHEMBL5465560, “Selectivity Literature for EUbOPEN Chemogenomic Library” (2024)
One block for each compound: values may come before it.

How the values were obtained:
[1] = target: T1, RNA 5'-monophosphate methyltransferase (Homo sapiens) (UniProt Q7Z5W3); assay: Selectivity interaction (Methyltransferase screen (radiometric assays, panel of 8 PRMTs, 21 protein lysine methyltransferases, 3 DNA methyltransferases, and one RNA methyltransferase)) EUB0000272b BCDIN3D
T1 sequence (whole entry): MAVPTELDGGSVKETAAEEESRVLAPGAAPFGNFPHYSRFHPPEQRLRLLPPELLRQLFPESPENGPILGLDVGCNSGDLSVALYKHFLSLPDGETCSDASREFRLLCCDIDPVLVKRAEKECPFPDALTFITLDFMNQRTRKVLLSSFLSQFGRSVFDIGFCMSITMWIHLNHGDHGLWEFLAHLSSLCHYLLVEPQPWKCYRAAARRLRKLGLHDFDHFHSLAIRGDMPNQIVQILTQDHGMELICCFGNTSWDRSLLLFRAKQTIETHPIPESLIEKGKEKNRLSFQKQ

[2] = target: Sodium-dependent noradrenaline transporter (Homo sapiens, UniProt P23975); assay: Selectivity interaction (Panel of kinases, GPCRs, ion channels and transporters (enzymatic assay)) EUB0000266bCl SLC6A2
Sodium-dependent noradrenaline transporter, sequence (P23975 whole entry): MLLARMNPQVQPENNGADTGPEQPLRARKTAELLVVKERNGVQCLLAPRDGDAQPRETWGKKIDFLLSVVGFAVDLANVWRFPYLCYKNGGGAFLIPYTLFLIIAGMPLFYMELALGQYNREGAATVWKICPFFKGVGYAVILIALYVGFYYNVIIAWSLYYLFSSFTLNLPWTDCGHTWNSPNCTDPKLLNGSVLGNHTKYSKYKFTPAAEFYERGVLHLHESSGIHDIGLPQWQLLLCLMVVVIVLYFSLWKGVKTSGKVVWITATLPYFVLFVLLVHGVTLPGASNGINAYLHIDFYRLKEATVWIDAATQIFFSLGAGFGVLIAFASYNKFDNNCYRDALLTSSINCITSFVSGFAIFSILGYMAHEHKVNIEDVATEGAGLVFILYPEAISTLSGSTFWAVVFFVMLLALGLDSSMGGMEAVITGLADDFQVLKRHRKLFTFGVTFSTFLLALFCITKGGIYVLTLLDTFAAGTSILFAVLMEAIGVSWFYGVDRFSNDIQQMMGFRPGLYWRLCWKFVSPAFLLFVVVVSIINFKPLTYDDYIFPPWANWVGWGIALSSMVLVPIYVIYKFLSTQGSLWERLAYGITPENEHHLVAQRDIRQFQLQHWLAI

[3] = target: Cyclin-dependent kinase 2 (Homo sapiens, UniProt P24941); assay: Selectivity interaction (ActivX KiNativ screen (kinase selectivity in THP-1 cell lysates)) EUB0000639a CDK2; format: subcellular; settings: lysate, at 5 µM
[4] = target: T2, Ephrin type-B receptor 1 (Homo sapiens) (UniProt P54762); assay: Selectivity interaction (ProQinase) EUB0000171b EPHB1
T2 sequence (whole entry): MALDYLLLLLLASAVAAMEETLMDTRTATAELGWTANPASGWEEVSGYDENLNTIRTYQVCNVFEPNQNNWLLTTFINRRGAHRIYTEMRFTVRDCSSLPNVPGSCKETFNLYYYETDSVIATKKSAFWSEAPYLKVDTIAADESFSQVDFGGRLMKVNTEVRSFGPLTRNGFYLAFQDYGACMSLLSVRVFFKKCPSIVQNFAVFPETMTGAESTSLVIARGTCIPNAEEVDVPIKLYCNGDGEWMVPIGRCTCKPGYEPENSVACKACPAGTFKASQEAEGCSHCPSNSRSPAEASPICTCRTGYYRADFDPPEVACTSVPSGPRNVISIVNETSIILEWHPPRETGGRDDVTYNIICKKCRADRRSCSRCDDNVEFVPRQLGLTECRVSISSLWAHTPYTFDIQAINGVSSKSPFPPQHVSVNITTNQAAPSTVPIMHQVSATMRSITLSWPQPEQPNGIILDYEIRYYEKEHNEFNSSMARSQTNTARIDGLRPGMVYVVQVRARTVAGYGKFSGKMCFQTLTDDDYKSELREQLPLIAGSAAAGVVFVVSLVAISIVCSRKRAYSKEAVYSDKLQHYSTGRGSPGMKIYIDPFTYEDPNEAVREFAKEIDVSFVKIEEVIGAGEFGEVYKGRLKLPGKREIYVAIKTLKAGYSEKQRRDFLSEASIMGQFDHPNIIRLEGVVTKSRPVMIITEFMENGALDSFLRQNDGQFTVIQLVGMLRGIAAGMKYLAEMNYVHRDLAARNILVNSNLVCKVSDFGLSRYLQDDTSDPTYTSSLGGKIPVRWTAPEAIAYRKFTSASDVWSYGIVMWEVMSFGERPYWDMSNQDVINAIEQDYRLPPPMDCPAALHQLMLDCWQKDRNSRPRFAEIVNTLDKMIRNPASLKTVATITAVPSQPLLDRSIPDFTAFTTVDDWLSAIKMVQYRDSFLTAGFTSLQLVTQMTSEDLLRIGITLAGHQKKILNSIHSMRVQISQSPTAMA

[5] = target: Mast/stem cell growth factor receptor Kit (Homo sapiens, UniProt P10721); assay: (§1) Selectivity interaction (Ambit KINOMEscan and KiNATiv profiling in Jurkat cells) EUB0000090b KIT; format: cell-based; settings: at 1 µM
Mast/stem cell growth factor receptor Kit, sequence (P10721 whole entry): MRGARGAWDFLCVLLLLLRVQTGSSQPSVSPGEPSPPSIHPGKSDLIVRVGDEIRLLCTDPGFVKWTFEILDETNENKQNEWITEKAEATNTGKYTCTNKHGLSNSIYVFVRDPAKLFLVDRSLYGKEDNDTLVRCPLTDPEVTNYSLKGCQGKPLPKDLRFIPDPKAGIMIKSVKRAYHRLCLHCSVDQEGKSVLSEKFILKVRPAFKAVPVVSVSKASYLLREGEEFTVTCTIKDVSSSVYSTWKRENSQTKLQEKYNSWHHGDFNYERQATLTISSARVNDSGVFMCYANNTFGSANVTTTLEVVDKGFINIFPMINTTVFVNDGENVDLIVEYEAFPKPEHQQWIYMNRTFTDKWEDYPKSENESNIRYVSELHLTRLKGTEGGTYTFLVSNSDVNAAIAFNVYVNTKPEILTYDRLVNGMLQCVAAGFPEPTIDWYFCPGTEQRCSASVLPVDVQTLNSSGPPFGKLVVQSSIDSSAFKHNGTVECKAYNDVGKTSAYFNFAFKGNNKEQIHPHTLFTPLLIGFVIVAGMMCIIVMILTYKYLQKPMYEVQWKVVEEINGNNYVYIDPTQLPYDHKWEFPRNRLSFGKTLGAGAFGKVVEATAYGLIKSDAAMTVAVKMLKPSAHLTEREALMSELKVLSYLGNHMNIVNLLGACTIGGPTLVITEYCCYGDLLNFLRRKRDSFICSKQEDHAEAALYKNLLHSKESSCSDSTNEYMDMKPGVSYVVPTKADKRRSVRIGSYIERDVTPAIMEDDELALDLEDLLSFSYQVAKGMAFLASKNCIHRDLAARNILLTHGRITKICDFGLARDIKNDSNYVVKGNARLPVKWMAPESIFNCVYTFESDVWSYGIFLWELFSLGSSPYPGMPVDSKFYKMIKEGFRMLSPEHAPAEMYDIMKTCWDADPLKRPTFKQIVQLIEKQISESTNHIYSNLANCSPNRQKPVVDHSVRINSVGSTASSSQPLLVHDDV

[6] = test system: Mast/stem cell growth factor receptor Kit (Homo sapiens), P10721 [V559D]; assay: as §1; format: cell-based; settings: at 1 µM
Mast/stem cell growth factor receptor Kit (Homo sapiens), P10721 [V559D], sequence (P10721 whole entry V559D): as the sequence (P10721 whole entry) above, with V559D counted along it

[7] = test system: Mast/stem cell growth factor receptor Kit (Homo sapiens), P10721 [D816V]; assay: as §1; format: cell-based; settings: at 1 µM
Mast/stem cell growth factor receptor Kit (Homo sapiens), P10721 [D816V], sequence (P10721 whole entry D816V): as the sequence (P10721 whole entry) above, with D816V counted along it

[8] = test system: Mast/stem cell growth factor receptor Kit (Homo sapiens), P10721 [A829P]; assay: as §1; format: cell-based; settings: at 1 µM
Mast/stem cell growth factor receptor Kit (Homo sapiens), P10721 [A829P], sequence (P10721 whole entry A829P): as the sequence (P10721 whole entry) above, with A829P counted along it

[9] = test system: Mast/stem cell growth factor receptor Kit (Homo sapiens), P10721 [V559D,T670I]; assay: as §1; format: cell-based; settings: at 1 µM
Mast/stem cell growth factor receptor Kit (Homo sapiens), P10721 [V559D,T670I], sequence (P10721 whole entry V559D/T670I): as the sequence (P10721 whole entry) above, with V559D, T670I counted along it

[10] = test system: Mast/stem cell growth factor receptor Kit (Homo sapiens), P10721 [V559D,V654A]; assay: as §1; format: cell-based; settings: at 1 µM
Mast/stem cell growth factor receptor Kit (Homo sapiens), P10721 [V559D,V654A], sequence (P10721 whole entry V559D/V654A): as the sequence (P10721 whole entry) above, with V559D, V654A counted along it

[11] = test system: Mast/stem cell growth factor receptor Kit (Homo sapiens), P10721 [D816H]; assay: as §1; format: cell-based; settings: at 1 µM
Mast/stem cell growth factor receptor Kit (Homo sapiens), P10721 [D816H], sequence (P10721 whole entry D816H): as the sequence (P10721 whole entry) above, with D816H counted along it

[12] = test system: Mast/stem cell growth factor receptor Kit (Homo sapiens), P10721 [L576P]; assay: as §1; format: cell-based; settings: at 1 µM
Mast/stem cell growth factor receptor Kit (Homo sapiens), P10721 [L576P], sequence (P10721 whole entry L576P): as the sequence (P10721 whole entry) above, with L576P counted along it

[13] = target: Tyrosine-protein kinase Srms (Homo sapiens) (UniProt Q9H3Y6); assay: Selectivity interaction (KinomeScan (DiscoverX)) EUB0000092b SRMS; settings: at 10 µM
Tyrosine-protein kinase Srms (Homo sapiens), sequence (Q9H3Y6 whole entry): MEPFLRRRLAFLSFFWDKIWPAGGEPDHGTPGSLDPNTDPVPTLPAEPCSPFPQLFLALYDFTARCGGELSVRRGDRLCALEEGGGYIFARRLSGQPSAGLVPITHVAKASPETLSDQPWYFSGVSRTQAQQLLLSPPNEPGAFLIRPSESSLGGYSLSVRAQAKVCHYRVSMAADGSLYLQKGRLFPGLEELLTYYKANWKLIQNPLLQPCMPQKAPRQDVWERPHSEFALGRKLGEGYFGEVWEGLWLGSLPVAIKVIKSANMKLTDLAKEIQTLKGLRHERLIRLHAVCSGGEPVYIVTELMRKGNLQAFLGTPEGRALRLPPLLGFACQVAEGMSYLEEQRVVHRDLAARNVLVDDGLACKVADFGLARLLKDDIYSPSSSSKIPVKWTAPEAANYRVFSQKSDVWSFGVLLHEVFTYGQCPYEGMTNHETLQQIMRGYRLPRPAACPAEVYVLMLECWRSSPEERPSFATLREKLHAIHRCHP

[14] = target: Ribosomal protein S6 kinase alpha-3 (Homo sapiens, UniProt P51812); assay: Selectivity interaction (ActivX KiNativ screen (ex vivo kinase selectivity in human PBMCs)) EUB0001619a RPS6KA3; format: cell-based; settings: PBMC, at 1 µM
Ribosomal protein S6 kinase alpha-3, sequence (P51812 whole entry): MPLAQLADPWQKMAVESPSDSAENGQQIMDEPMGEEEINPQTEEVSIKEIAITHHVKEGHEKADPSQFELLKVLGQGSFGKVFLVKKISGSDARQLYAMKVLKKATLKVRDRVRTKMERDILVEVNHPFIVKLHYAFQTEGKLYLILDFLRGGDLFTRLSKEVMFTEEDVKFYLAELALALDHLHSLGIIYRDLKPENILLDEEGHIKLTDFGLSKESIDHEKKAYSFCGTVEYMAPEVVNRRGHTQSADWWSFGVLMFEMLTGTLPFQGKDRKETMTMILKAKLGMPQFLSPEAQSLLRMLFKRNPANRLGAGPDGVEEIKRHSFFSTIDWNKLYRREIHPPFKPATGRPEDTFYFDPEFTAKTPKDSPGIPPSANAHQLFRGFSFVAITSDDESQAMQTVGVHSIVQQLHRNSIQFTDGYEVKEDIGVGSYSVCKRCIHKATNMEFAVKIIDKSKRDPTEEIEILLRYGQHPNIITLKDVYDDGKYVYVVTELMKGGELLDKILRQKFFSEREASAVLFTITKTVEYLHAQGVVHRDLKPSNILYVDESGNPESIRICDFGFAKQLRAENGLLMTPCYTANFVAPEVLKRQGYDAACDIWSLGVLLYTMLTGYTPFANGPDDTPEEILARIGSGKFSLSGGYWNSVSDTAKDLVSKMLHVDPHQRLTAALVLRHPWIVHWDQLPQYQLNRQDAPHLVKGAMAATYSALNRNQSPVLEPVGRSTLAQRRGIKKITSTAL

[15] = target: T3, EKC/KEOPS complex subunit TP53RK (Homo sapiens) (UniProt Q96S44); assay: Selectivity interaction (ActivX KiNativ screen (ex vivo kinase selectivity in human PBMCs)) EUB0001619a TP53RK; format: cell-based; settings: PBMC, at 1 µM
T3 sequence (whole entry): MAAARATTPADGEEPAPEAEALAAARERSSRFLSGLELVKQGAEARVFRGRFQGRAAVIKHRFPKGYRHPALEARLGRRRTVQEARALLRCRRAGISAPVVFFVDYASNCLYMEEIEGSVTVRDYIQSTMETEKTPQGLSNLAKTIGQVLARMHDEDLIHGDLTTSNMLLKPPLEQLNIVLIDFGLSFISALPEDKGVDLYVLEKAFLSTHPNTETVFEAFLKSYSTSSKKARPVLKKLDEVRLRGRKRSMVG

SMILES: Cc1cc(C)cc([C@H]2c3cc(C)ccc3NC(=O)CN2C(=O)c2ccc(Br)s2)c1
- % of activity ([1]; at 1 µM): 96%
- % of activity ([1]; at 10 µM): 99.3%

SMILES: CC[C@@H]1[C@H](F)C(=O)N[C@@H]1COc1nccc2cc(C(N)=O)c(OC)cc12 [ZIMLOVISERTIB]
- % of inhibition [3]: 3%

SMILES: CN(C)C/C=C/C(=O)Nc1ccc(C(=O)N2CCCC(Nc3ncc(Cl)c(-c4c[nH]c5ccccc45)n3)C2)cc1 (configuration not stated)
- % of control [5]: 93%
- % of control [6]: 82%
- % of control [7]: 92%
- % of control [8]: 75%
- % of control [9]: 95%
- % of control [10]: 74%
- % of control [11]: 76%
- % of control [12]: 82%

SMILES: CCC(=O)N1CCN(c2ccc(-n3c(=O)ccc4cnc5ccc(-c6cnc7ccccc7c6)cc5c43)cc2C(F)(F)F)CC1
- % of control [13]: 92%

SMILES: N#Cc1cccc(-c2c[nH]c3ncnc(N4CCOCC4)c23)c1
- % of inhibition [14]: 13%
- % of inhibition [15]: -4%

More lines, now with the values ahead:

- pXC50 [2]: 4.4 M
SMILES: CCn1c(-c2nc3cc(C(=O)N4CCCC(N)C4)ccc3n2C)cc2ccccc21 (configuration not stated)

- % of control ([4]; at 1 µM): 83%
- % of control ([4]; at 5 µM): 82%
SMILES: C=CC(=O)Nc1cccc(C(=O)Nc2ccc(Nc3cc(-c4[nH]c(SC)nc4C)ccn3)cc2)c1
